Reference: patent US12692259B2, “Morpholine-containing and piperazine-containing CXCR4 modulators and uses related thereto” (Emory University, priority 2021, dated 2026)

test: PAMPA assay; format: in vitro ADME; conditions: pH 7.4
Procedure: PAMPA assay was performed by BioAssay Systems Services or Bristol Myers Squibb. The method used by BioAssay Systems Services is described below.
Stock solutions in DMSO for all compounds (10 mM) were thawed. The assay was performed in duplicate by following the PAMPA-096 procedure for sample plating. 4% Lecithin in dodecane solution was prepared by resuspending the dried lecithin with 750 μL dodecane. PBS pH 7.4 was used as the diluent. Two sets of plates and equilibrium solutions were incubated for 4 hours at room temperature. Acceptor and equilibrium solutions were analyzed in a UV plate. OD280 nm was used for High Permeability Control (chloramphenicol). OD270 nm was used for Medium Permeability Control (diclofenac) and Low Permeability Control (theophylline). OD254 nm was used for the test compounds.
Data analysis was performed by using the peak absorbance for each respective test compound and Permeability Control to determine the Permeability Rate (Pe) via the following equation: […]
where ODA is the absorbance of Acceptor Solution, ODE is the absorbance of the Equilibrium Standard, and C is determined by the equation below: […]
where Donor Volume (VD) is 0.2 cm^3, Acceptor Volume (VA) is 0.3 cm^3, and Membrane Area (Area) is 0.24 cm^2.

Papp at 4 h [×10⁻⁶ cm/s] | SMILES
12.3 | CN(C[C@H]1Cc2c(cccc2N2CC3CC2CO3)CN1)[C@H]1CCCc2cccnc21 (stereo in doubt) [EMU-325, (S)—N—(((R)-5-((1R,4R)-2-oxa-5-azabicyclo[2.2.1]heptan-5-yl)-1,2,3,4-tetrahydroisoquinolin-3-yl)methyl)-N-methyl-5,6,7,8-tetrahydroquinolin-8-amine]
3 | c1cnc2c(c1)CCC[C@@H]2N(CCCN1CCNCC1)C[C@H]1Cc2c(cccc2N2CCOCC2)CN1 [EMU-184, (S)—N—(((R)-5-morpholino-1,2,3,4-tetrahydroisoquinolin-3-yl)methyl)-N-(3-(piperazin-1-yl)propyl)-5,6,7,8-tetrahydroquinolin-8-amine]
19.2 | Cc1cnc(CN(C)C[C@H]2Cc3c(cccc3N3CCOCC3)CN2)c(C)c1 [EMU-260, (R)-1-(3,5-dimethylpyridin-2-yl)-N-methyl-N-((5-morpholino-1,2,3,4-tetrahydroisoquinolin-3-yl)methyl)methanamine]
22.6 | CN(CCCCN(C[C@H]1Cc2c(cccc2N2CCOCC2)CN1)[C@H]1CCCc2cccnc21)C1CCC(F)(F)CC1 [EMU-273, N1-(4,4-difluorocyclohexyl)-N1-methyl-N4-(((R)-5-morpholino-1,2,3,4-tetrahydroisoquinolin-3-yl)methyl)-N4-((S)-5,6,7,8-tetrahydroquinolin-8-yl)butane-1,4-diamine]
10 | CCN1CCN(CCCN(C[C@H]2Cc3c(cccc3N3CCOCC3)CN2)[C@H]2CCCc3cccnc32)CC1 [EMU-275, (S)—N-(3-(4-ethylpiperazin-1-yl)propyl)-N—(((R)-5-morpholino-1,2,3,4-tetrahydroisoquinolin-3-yl)methyl)-5,6,7,8-tetrahydroquinolin-8-amine]
16.5 | CN(C[C@H]1Cc2c(cccc2N2C[C@H]3CC[C@@H](C2)O3)CN1)[C@H]1CCCc2cccnc21 [EMU-295, (S)—N—(((R)-5-((1R,5S)-8-oxa-3-azabicyclo[3.2.1]octan-3-yl)-1,2,3,4-tetrahydroisoquinolin-3-yl)methyl)-N-methyl-5,6,7,8-tetrahydroquinolin-8-amine]
15.5 | C[C@@H]1CN(c2cccc3c2C[C@H](CN(C)[C@H]2CCCc4cccnc42)NC3)CCO1 [EMU-317, (S)—N-methyl-N—(((R)-5-((R)-2-methylmorpholino)-1,2,3,4-tetrahydroisoquinolin-3-yl)methyl)-5,6,7,8-tetrahydroquinolin-8-amine]
16.6 | C[C@H]1CN(c2cccc3c2C[C@H](CN(C)[C@H]2CCCc4cccnc42)NC3)CCO1 [EMU-318, (S)—N-methyl-N—(((R)-5-((S)-2-methylmorpholino)-1,2,3,4-tetrahydroisoquinolin-3-yl)methyl)-5,6,7,8-tetrahydroquinolin-8-amine]
16 | CN(C[C@H]1Cc2c(cccc2N2CCOCC2)CN1)[C@H]1CCOc2cccnc21 [EMU-319, (4S)—N-methyl-N-((5-morpholino-1,2,3,4-tetrahydroisoquinolin-3-yl)methyl)-3,4-dihydro-2H-pyrano[3,2-b]pyridin-4-amine]
13.1 | CN(C[C@H]1Cc2c(cccc2N2CCO[C@@H](CO)C2)CN1)[C@H]1CCCc2cccnc21 [EMU-322, ((R)-4-((R)-3-((methyl((S)-5,6,7,8-tetrahydroquinolin-8-yl)amino)methyl)-1,2,3,4-tetrahydroisoquinolin-5-yl)morpholin-2-yl)methanol]
15.7 | C[C@@H]1COCCN1c1cccc2c1C[C@H](CN(C)[C@H]1CCCc3cccnc31)NC2 [EMU-338, (S)—N-methyl-N—(((R)-5-((R)-3-methylmorpholino)-1,2,3,4-tetrahydroisoquinolin-3-yl)methyl)-5,6,7,8-tetrahydroquinolin-8-amine]
17.1 | C[C@H]1COCCN1c1cccc2c1C[C@H](CN(C)[C@H]1CCCc3cccnc31)NC2 [EMU-339, (S)—N-methyl-N—(((R)-5-((S)-3-methylmorpholino)-1,2,3,4-tetrahydroisoquinolin-3-yl)methyl)-5,6,7,8-tetrahydroquinolin-8-amine]
